Experimental data taken from US20060134102A1, “Lymphotoxin beta receptor agents in combination with chemotherapeutic agents” (Biogen Idec MA Inc., priority 2002, published 2006).

Tested on: KM-20L2 human colorectal adenocarcinoma
Test: KM-20L2 xenograft model: growth of established KM-20L2 human colorectal tumors in athymic nude mice (tumor volume/weight, % T/C, Fa, Combination Index)
Type: in vivo

Nc1ccn([C@@H]2O[C@H](CO)[C@@H](O)C2(F)F)c(=O)n1 [Gemcitabine, gemcitabine, reference compound]
Mean Tumor Volume (Gem 10 mg/kg, Day 37): 723.7 cubic mm
Mean Tumor Volume Decrease (Gem 10 mg/kg, Day 37): 484.3 cubic mm
Mean Fraction Affected (Fa) (Gem 10 mg/kg, Day 41): 0.399
Mean Fraction Affected/Fraction Unaffected (Fa/Fu) (Gem 10 mg/kg, Day 41): 0.664
Mean Tumor Volume (Gem 10 mg/kg, Day 41): 865.2 cubic mm
Mean Tumor Volume Decrease (Gem 10 mg/kg, Day 41): 574.2 cubic mm
Mean Fraction Affected (Fa) (Gem 10 mg/kg, Day 43): 0.393
Mean Fraction Affected/Fraction Unaffected (Fa/Fu) (Gem 10 mg/kg, Day 43): 0.647
Mean Tumor Volume (Gem 10 mg/kg, Day 43): 975.7 cubic mm
Mean Tumor Volume Decrease (Gem 10 mg/kg, Day 43): 631.0 cubic mm
Mean Fraction Affected (Fa) (Gem 20 mg/kg, Day 9): 0.053
Mean Fraction Affected/Fraction Unaffected (Fa/Fu) (Gem 20 mg/kg, Day 9): 0.056
Mean Tumor Volume (Gem 20 mg/kg, Day 9): 105.9 cubic mm
Mean Tumor Volume Decrease (Gem 20 mg/kg, Day 9): 5.9 cubic mm
Mean Fraction Affected (Fa) (Gem 20 mg/kg, Day 13): 0.357
Mean Fraction Affected/Fraction Unaffected (Fa/Fu) (Gem 20 mg/kg, Day 13): 0.555
Mean Tumor Volume (Gem 20 mg/kg, Day 13): 111.0 cubic mm
Mean Tumor Volume Decrease (Gem 20 mg/kg, Day 13): 61.6 cubic mm
Mean Fraction Affected (Fa) (Gem 20 mg/kg, Day 16): 0.623
Mean Fraction Affected/Fraction Unaffected (Fa/Fu) (Gem 20 mg/kg, Day 16): 1.655
Mean Tumor Volume (Gem 20 mg/kg, Day 16): 99.8 cubic mm
Mean Tumor Volume Decrease (Gem 20 mg/kg, Day 16): 165.2 cubic mm
Mean Fraction Affected (Fa) (Gem 20 mg/kg, Day 20): 0.748
Mean Fraction Affected/Fraction Unaffected (Fa/Fu) (Gem 20 mg/kg, Day 20): 2.966
Mean Tumor Volume (Gem 20 mg/kg, Day 20): 101.1 cubic mm
Mean Tumor Volume Decrease (Gem 20 mg/kg, Day 20): 299.9 cubic mm
Mean Fraction Affected (Fa) (Gem 20 mg/kg, Day 23): 0.721
Mean Fraction Affected/Fraction Unaffected (Fa/Fu) (Gem 20 mg/kg, Day 23): 2.579
Mean Tumor Volume (Gem 20 mg/kg, Day 23): 147.3 cubic mm
Mean Tumor Volume Decrease (Gem 20 mg/kg, Day 23): 379.9 cubic mm
Mean Fraction Affected (Fa) (Gem 20 mg/kg, Day 27): 0.663
Mean Fraction Affected/Fraction Unaffected (Fa/Fu) (Gem 20 mg/kg, Day 27): 1.970
Mean Tumor Volume (Gem 20 mg/kg, Day 27): 225.1 cubic mm
Mean Tumor Volume Decrease (Gem 20 mg/kg, Day 27): 443.5 cubic mm
Mean Fraction Affected (Fa) (Gem 20 mg/kg, Day 30): 0.605
Mean Fraction Affected/Fraction Unaffected (Fa/Fu) (Gem 20 mg/kg, Day 30): 1.530
Mean Tumor Volume (Gem 20 mg/kg, Day 30): 322.6 cubic mm
Mean Tumor Volume Decrease (Gem 20 mg/kg, Day 30): 493.6 cubic mm
Mean Fraction Affected (Fa) (Gem 20 mg/kg, Day 34): 0.578
Mean Fraction Affected/Fraction Unaffected (Fa/Fu) (Gem 20 mg/kg, Day 34): 1.371
Mean Tumor Volume (Gem 20 mg/kg, Day 34): 443.0 cubic mm
Mean Tumor Volume Decrease (Gem 20 mg/kg, Day 34): 607.3 cubic mm
Mean Fraction Affected (Fa) (Gem 20 mg/kg, Day 37): 0.568
Mean Fraction Affected/Fraction Unaffected (Fa/Fu) (Gem 20 mg/kg, Day 37): 1.314
Mean Tumor Volume (Gem 20 mg/kg, Day 37): 522.1 cubic mm
Mean Tumor Volume Decrease (Gem 20 mg/kg, Day 37): 685.9 cubic mm
Mean Fraction Affected (Fa) (Gem 20 mg/kg, Day 41): 0.532
Mean Fraction Affected/Fraction Unaffected (Fa/Fu) (Gem 20 mg/kg, Day 41): 1.135
Mean Tumor Volume (Gem 20 mg/kg, Day 41): 674.3 cubic mm
Mean Tumor Volume Decrease (Gem 20 mg/kg, Day 41): 765.1 cubic mm
Mean Fraction Affected (Fa) (Gem 20 mg/kg, Day 43): 0.531
Mean Fraction Affected/Fraction Unaffected (Fa/Fu) (Gem 20 mg/kg, Day 43): 1.134
Mean Tumor Volume (Gem 20 mg/kg, Day 43): 753.0 cubic mm
Mean Tumor Volume Decrease (Gem 20 mg/kg, Day 43): 853.7 cubic mm
Median Effect Dose (Given Separately, Day 16): 14.1 mg/kg
Median Effect Dose (Given Separately, Day 20): 10.1 mg/kg
Median Effect Dose (Given Separately, Day 23): 10.8 mg/kg
Median Effect Dose (Given Separately, Day 27): 12.8 mg/kg
Median Effect Dose (Given Separately, Day 30): 14.1 mg/kg
Median Effect Dose (Given Separately, Day 34): 14.8 mg/kg
Median Effect Dose (Given Separately, Day 37): 15.0 mg/kg
Median Effect Dose (Given Separately, Day 41): 16.8 mg/kg
Median Effect Dose (Given Separately, Day 43): 16.9 mg/kg
Median Effect Dose (dose of the labelled agent when huCBE11 and Gemcitabine Combined (4:5), Day 16): 4.5 mg/kg
Median Effect Dose (dose of the labelled agent when huCBE11 and Gemcitabine Combined (4:5), Day 20): 1.7 mg/kg
Median Effect Dose (dose of the labelled agent when huCBE11 and Gemcitabine Combined (4:5), Day 23): 0.7 mg/kg
Median Effect Dose (dose of the labelled agent when huCBE11 and Gemcitabine Combined (4:5), Day 27): 0.9 mg/kg
Median Effect Dose (dose of the labelled agent when huCBE11 and Gemcitabine Combined (4:5), Day 30): 0.8 mg/kg
Median Effect Dose (dose of the labelled agent when huCBE11 and Gemcitabine Combined (4:5), Day 34): 0.8 mg/kg
Median Effect Dose (dose of the labelled agent when huCBE11 and Gemcitabine Combined (4:5), Day 37): 0.5 mg/kg
Median Effect Dose (dose of the labelled agent when huCBE11 and Gemcitabine Combined (4:5), Day 41): 0.7 mg/kg
Median Effect Dose (dose of the labelled agent when huCBE11 and Gemcitabine Combined (4:5), Day 43): 0.6 mg/kg
Activity by NCI criteria (% T/C of 42 or less) (gemcitabine): active
Inhibition of tumor growth vs vehicle control (gemcitabine 20 mg/kg Days 13-55, 10 mg/kg Days 16-55, 5 mg/kg Days 13-43, separate study): Significant inhibition of tumor growth
% T/C (gemcitabine 20 mg/kg, Day 16 through Day 34): ≤ 42%
% T/C (gemcitabine 25 mg/kg, Day 17 through Day 31): ≤ 42%
Inhibition of tumor growth vs saline control (gemcitabine 140, 100, 50 and 25 mg/kg, Day 10 to Day 41): Significant inhibition of tumor growth
% T/C (gemcitabine 140, 100 and 50 mg/kg, from Days 14 or 17 for the duration of the study): ≤ 42%
